Reference: patent publication US10167262B2, “Herbicidal substituted 3-arylpyrazoles” (FMC CORPORATION, priority 2014, dated 2019)

Assays:
Assay in all cases: Test A pre-/postemergence greenhouse herbicide test, visual injury rating 0-100
Type in all cases: in vivo
[1] = tested on: barnyardgrass (Echinochloa crus-galli)
From the text: (§1) Seeds of plant species selected from barnyardgrass (Echinochloa crus-galli), large (Lg) crabgrass (Digitaria sanguinalis), giant foxtail (Setaria faberii), morningglory (Ipomoea spp.), pigweed (Amaranthus retroflexus), velvetleaf (Abutilon theophrasti), wheat (Triticum aestivum), and corn (Zea mays) were planted into a blend of loam soil and sand and treated preemergence with a directed soil spray using test chemicals formulated in a non-phytotoxic solvent mixture which included a surfactant. At the same time these species were also treated with postemergence applications of test chemicals formulated in the same manner. Plants ranged in height from 2 to 10 cm and were in the one- to two-leaf stage for the postemergence treatment. Treated plants and untreated controls were maintained in a greenhouse for approximately 10 days, after which time all treated plants were compared to untreated controls and visually evaluated for injury. Plant response ratings, summarized in Table A, are based on a 0 to 100 scale where 0 is no effect and 100 is complete control. A dash (-) response means no test result.

corn (Zea mays) = tested on: corn (Zea mays)
From the text: as §1

[2] = tested on: giant foxtail (Setaria faberii)
From the text: as §1

[3] = tested on: large (Lg) crabgrass (Digitaria sanguinalis)
From the text: as §1

[4] = tested on: morningglory (Ipomoea spp.)
From the text: as §1

[5] = tested on: pigweed (Amaranthus retroflexus)
From the text: as §1

[6] = tested on: velvetleaf (Abutilon theophrasti)
From the text: as §1

[7] = tested on: wheat (Triticum aestivum)
From the text: as §1

With `O=C(c1ccccc1)c1cn(CC(F)F)nc1-c1cc(Cl)cc(Cl)c1` [Compound 59] the “Plant response rating (0 to 100 scale), Barnyardgrass” value ([1]; Postemergence, 125 g ai/ha) was 0, the “Plant response rating (0 to 100 scale), Barnyardgrass” value ([1]; Postemergence, 500 g ai/ha) was 0 and the “Barnyardgrass plant response rating (0 = no effect, 100 = complete control)” value ([1]; Preemergence, 125 g ai/ha) was 0. The “Plant response rating (0 to 100 scale), Barnyardgrass” value ([1]; Preemergence, 500 g ai/ha) was 0, the “Plant response rating (0 to 100 scale), Corn” value (corn (Zea mays); Postemergence, 125 g ai/ha) was 0 and the “Plant response rating (0 to 100 scale), Corn” value (corn (Zea mays); Postemergence, 500 g ai/ha) was 0. The “Corn plant response rating (0 = no effect, 100 = complete control)” value (corn (Zea mays); Preemergence, 125 g ai/ha) was 0, the “Plant response rating (0 to 100 scale), Corn” value (corn (Zea mays); Preemergence, 500 g ai/ha) was 0 and the “Plant response rating (0 to 100 scale), Foxtail, Giant” value ([2]; Postemergence, 125 g ai/ha) was 0. The “Plant response rating (0 to 100 scale), Foxtail, Giant” value ([2]; Postemergence, 500 g ai/ha) was 0, the “Foxtail, Giant plant response rating (0 = no effect, 100 = complete control)” value ([2]; Preemergence, 125 g ai/ha) was 0 and the “Plant response rating (0 to 100 scale), Foxtail, Giant” value ([2]; Preemergence, 500 g ai/ha) was 0. For the same molecule, the “Plant response rating (0 to 100 scale), Crabgrass, Large” value ([3]; Postemergence, 125 g ai/ha) was 0, the “Plant response rating (0 to 100 scale), Crabgrass, Large” value ([3]; Postemergence, 500 g ai/ha) was 0 and the “Crabgrass, Large plant response rating (0 = no effect, 100 = complete control)” value ([3]; Preemergence, 125 g ai/ha) was 0. The “Plant response rating (0 to 100 scale), Crabgrass, Large” value ([3]; Preemergence, 500 g ai/ha) was 0, the “Plant response rating (0 to 100 scale), Morningglory” value ([4]; Postemergence, 125 g ai/ha) was 0 and the “Plant response rating (0 to 100 scale), Morningglory” value ([4]; Postemergence, 500 g ai/ha) was 0. For the same molecule, the “Morningglory plant response rating (0 = no effect, 100 = complete control)” value ([4]; Preemergence, 125 g ai/ha) was 0, the “Plant response rating (0 to 100 scale), Morningglory” value ([4]; Preemergence, 500 g ai/ha) was 0 and the “Plant response rating (0 to 100 scale), Pigweed” value ([5]; Postemergence, 125 g ai/ha) was 60. For the same molecule, the “Plant response rating (0 to 100 scale), Pigweed” value ([5]; Postemergence, 500 g ai/ha) was 80, the “Pigweed plant response rating (0 = no effect, 100 = complete control)” value ([5]; Preemergence, 125 g ai/ha) was 0 and the “Plant response rating (0 to 100 scale), Pigweed” value ([5]; Preemergence, 500 g ai/ha) was 30. For the same molecule, the “Plant response rating (0 to 100 scale), Velvetleaf” value ([6]; Postemergence, 125 g ai/ha) was 50, the “Plant response rating (0 to 100 scale), Velvetleaf” value ([6]; Postemergence, 500 g ai/ha) was 70 and the “Velvetleaf plant response rating (0 = no effect, 100 = complete control)” value ([6]; Preemergence, 125 g ai/ha) was 0. The “Plant response rating (0 to 100 scale), Velvetleaf” value ([6]; Preemergence, 500 g ai/ha) was 40, the “Plant response rating (0 to 100 scale), Wheat” value ([7]; Postemergence, 125 g ai/ha) was 0 and the “Plant response rating (0 to 100 scale), Wheat” value ([7]; Postemergence, 500 g ai/ha) was 0. For the same molecule, the “Wheat plant response rating (0 = no effect, 100 = complete control)” value ([7]; Preemergence, 125 g ai/ha) was 0.
In the case of `CC(=O)n1cc(C(=O)c2cncc(F)c2)c(-c2cc(Cl)cc(Cl)c2)n1` [Compound 20], the “Plant response rating (0 to 100 scale), Barnyardgrass” value ([1]; Postemergence, 1000 g ai/ha) is reported as 0, the “Plant response rating (0 to 100 scale), Barnyardgrass” value ([1]; Preemergence, 1000 g ai/ha) is reported as 0 and the “Plant response rating (0 to 100 scale), Corn” value (corn (Zea mays); Postemergence, 1000 g ai/ha) is reported as 0. For the same molecule, the “Plant response rating (0 to 100 scale), Corn” value (corn (Zea mays); Preemergence, 1000 g ai/ha) was 0, the “Plant response rating (0 to 100 scale), Foxtail, Giant” value ([2]; Postemergence, 1000 g ai/ha) was 0 and the “Plant response rating (0 to 100 scale), Foxtail, Giant” value ([2]; Preemergence, 1000 g ai/ha) was 0. For the same molecule, the “Plant response rating (0 to 100 scale), Crabgrass, Large” value ([3]; Postemergence, 1000 g ai/ha) was 0, the “Plant response rating (0 to 100 scale), Crabgrass, Large” value ([3]; Preemergence, 1000 g ai/ha) was 0 and the “Plant response rating (0 to 100 scale), Morningglory” value ([4]; Postemergence, 1000 g ai/ha) was 0. The “Plant response rating (0 to 100 scale), Morningglory” value ([4]; Preemergence, 1000 g ai/ha) was 0, the “Plant response rating (0 to 100 scale), Pigweed” value ([5]; Postemergence, 1000 g ai/ha) was 90 and the “Plant response rating (0 to 100 scale), Pigweed” value ([5]; Preemergence, 1000 g ai/ha) was 100. The “Plant response rating (0 to 100 scale), Velvetleaf” value ([6]; Postemergence, 1000 g ai/ha) was 90, the “Plant response rating (0 to 100 scale), Velvetleaf” value ([6]; Preemergence, 1000 g ai/ha) was 80 and the “Plant response rating (0 to 100 scale), Wheat” value ([7]; Postemergence, 1000 g ai/ha) was 0. The “Plant response rating (0 to 100 scale), Wheat” value ([7]; Preemergence, 1000 g ai/ha) was 0.
In the case of `CCn1cc(C(=O)c2cncc(F)c2)c(-c2cc(Cl)cc(Cl)c2)n1` [Compound 21], the “Plant response rating (0 to 100 scale), Barnyardgrass” value ([1]; Postemergence, 1000 g ai/ha) is reported as 0, the “Plant response rating (0 to 100 scale), Barnyardgrass” value ([1]; Preemergence, 1000 g ai/ha) is reported as 0 and the “Plant response rating (0 to 100 scale), Corn” value (corn (Zea mays); Postemergence, 1000 g ai/ha) is reported as 0. For the same molecule, the “Plant response rating (0 to 100 scale), Corn” value (corn (Zea mays); Preemergence, 1000 g ai/ha) was 0, the “Plant response rating (0 to 100 scale), Foxtail, Giant” value ([2]; Postemergence, 1000 g ai/ha) was 0 and the “Plant response rating (0 to 100 scale), Foxtail, Giant” value ([2]; Preemergence, 1000 g ai/ha) was 0. The “Plant response rating (0 to 100 scale), Crabgrass, Large” value ([3]; Postemergence, 1000 g ai/ha) was 10, the “Plant response rating (0 to 100 scale), Crabgrass, Large” value ([3]; Preemergence, 1000 g ai/ha) was 0 and the “Plant response rating (0 to 100 scale), Morningglory” value ([4]; Postemergence, 1000 g ai/ha) was 0. The “Plant response rating (0 to 100 scale), Morningglory” value ([4]; Preemergence, 1000 g ai/ha) was 0, the “Plant response rating (0 to 100 scale), Pigweed” value ([5]; Postemergence, 1000 g ai/ha) was 100 and the “Plant response rating (0 to 100 scale), Pigweed” value ([5]; Preemergence, 1000 g ai/ha) was 80. The “Plant response rating (0 to 100 scale), Velvetleaf” value ([6]; Postemergence, 1000 g ai/ha) was 90, the “Plant response rating (0 to 100 scale), Velvetleaf” value ([6]; Preemergence, 1000 g ai/ha) was 80 and the “Plant response rating (0 to 100 scale), Wheat” value ([7]; Postemergence, 1000 g ai/ha) was 0. For the same molecule, the “Plant response rating (0 to 100 scale), Wheat” value ([7]; Preemergence, 1000 g ai/ha) was 0.
